Results from US20060182763A1, “CD8 T cell epitopes in HPV 16 E6 and E7 proteins and uses thereof” (priority 2005, published 2006).
Values joined by “and” are separate entries in the source; they are usually repeats but may differ in a detail not shown here. Identical values can stand only once. “Also recorded” adds a separate entry of the source. Where no end group is shown, it is not given here.

Key:
Type in all cases: cell-based, human
T cell clones [1] = test: IFN-γ ELISPOT of T cell clones with peptides and autologous EBV-LCL; conditions: for T cell clones positive in screening ELISPOT: 94 out of 400 clones screened; for retest of screen-positive T cell clones (ELISPOT): 1000 T cell clone cells in duplicate; for ELISPOT response (spot-forming units) of T cell clones: subject 15 clones specific for E6 26-40, peptides 10 μM; for ELISPOT response of 27G6 clone: subject 1, E7-specific clone; for ELISPOT response of T cell clones: subject 5 clones #1-5 and #17-5; for ELISPOT response (spot forming units) of T cell clones: 10 μM
Method: A method described previously was used with some modifications (Larsson, M. et al., 2002). Briefly, a 96-well plate (Millititer, Millipore, Bedford, Mass.) was coated with 5μg/ml primary anti-γ-IFN monoclonal antibody (Mabtech, Stockholm, Sweden) and stored at 4° C. overnight. The plate was then washed 4 times with phosphate buffered saline (PBS) and blocked using RPMI 1640 plus 5% pooled human serum for 1 h at 37° C.
To examine the pattern of CD8 T cell epitopes (FIG. 1), 1×10^5cells of a CD8 T cell line were plated in each well. Overlapping 15-mer peptides (overlapping by the 10 central amino acids) were pooled to 10 groups (each group containing 3 peptides) and tested in duplicate (10 μM for each peptide) along with no peptide control. For screening T cell clones, 50 μl of culture media containing the T cell clones was added with 1×10^5 autologous Epstein-Barr virus-transformed B lymphoblastoid cell line (EBV-LCL) cells (data not shown). With the remaining experiments using T cell clones, 1×10^3 T cell clones were plated along with 1×10^5EBV-LCL cells to reduce the number of T cell clones necessary for analysis. All peptides were used at a concentration of 10 μM.
Autologous EBV-LCL cells were incubated with E6-vac, E7-vac or WR at the multiplicity of infection of 10 for 1 h at 37° C. prior to being plated (FIG. 2B). Phytohemagglutinin (PHA) at 10 μg/ml was added as positive control. After a 24 h incubation at 37° C., the plate was washed 4 times with PS plus 0.05% Tween-20. A total of 50 μl of secondary antibody (1 μg/ml biotin-conjugated anti-IFNγ monoclonal antibody; Mabtech) was added and the plate was incubated for 2 h at 37° C. The plate was then washed 4 times with PBS plus 0.1% Tween-20. Avidin-bound biotinylated horseradish peroxidase H (Vectastain Elite kit; Vector laboratories, Inc., Burligame, Calif.) was added […] and air-dried overnight. Spot forming units were counted using an automated ELISPOT analyzer (Cell Technology, Inc., Jessup, Md.) and were normalized to number of spot forming units per 1×10^6 cells for CD8 T cell lines. Response was considered positive when the number of spot forming units in wells with peptide pools was at least double that seen in the no peptide control wells.
To isolate T cell clones recognizing the E6 antigenic epitope from subject 15, their CD8 T cell lines were stimulated as described above for two additional 7-day cycles, so the frequency of targeted T cell clones would be above the threshold of selection (≧0.1%). The peptide-specific T cells were positively selected using the IFN-γ secretion assay enrichment kit, according to the manufacturer's instructions (Miltenyi Biotec), after stimulating cells with 10 μM each of peptides contained in the E6 16-40 (SEQ ID NO. 36) pool. Selected cells were plated at a concentration of 0.5 cells per well in the presence of a 0.5× feeder cell mixture (Yssel's media containing 1% pooled human serum, penicillin G 100 units/ml, streptomycin 100 μg/ml, 5×10^5/ml irradiated allogenic PBMC, 5×10^4/ml irradiated JY cells, 0.1 μg/ml PHA, with/without 10 u/ml rIL-4). Control wells for growth contained 1 to 1000 cells per well. On day 5, 100 μl of Yssel's media containing 20 U/ml of rIL-2 was added to each well. Growing microcultures were transferred to 24-well plates containing 1 ml of 1× feeder cell mixture per well (Yssel's media containing 1% pooled human serum, penicillin G 100 units/ml, streptomycin 100 μg/ml, 1×10^6/ml irradiated allogenic PBMC, 1×10^5/ml irradiated JY cells and 0.1 μg/ml PHA).
All peptides were used at a concentration of […] and 1×10^3 T cell clones along with 1×10^5 autologous LCL cells were plated to each well.

CD8 T cell line = test: IFN-γ ELISPOT of CD8 T cell lines with pooled overlapping 15-mer peptides; parameters: key to CD8 T cell response to HPV 16 E6 region: The strongest T cell response for a given subject is indicated with upper case X; x: subdominant response is indicated with lower case X; conditions: pooled 15-mer peptides, 10 μM each
T cell clones [2] = test: ELISPOT with E6-vac/E7-vac-infected autologous EBV-LCL (naturally processed epitope)
[3] = subject 20, E6 16-40 region (eight clones), E6 31-55 region (four clones)
[4] = subject 20 clones #60-20, #127-20, #138-20

Substance: LQTTIHDIILECVYC (Human Papilloma Virus 16; CHAIN residues 26-40 of the E6 protein) [E6 26-40]
- screen-positive T cell clones positive for the 15-mer peptide on retest (T cell clones [1]; subject 5): none of 5
- screen-positive T cell clones positive for the 15-mer peptide on retest (T cell clones [1]; subject 7, of 10 (E6 16-40 region) or six (E6 46-70 region) clones): 10 clones
- T cell clones positive in screening ELISPOT (T cell clones [1]; subject 15): Thirteen
- retest of screen-positive T cell clones (ELISPOT) (T cell clones [1]; subject 15): confirming their specificity
- retest of screen-positive T cell clones (ELISPOT) (T cell clones [1]; subject 15, listed as E6 24-60): confirmed
- screen-positive T cell clones positive for the 15-mer peptide on retest (T cell clones [1]; subject 15, of 14 clones positive for E6 16-40 region): 10 clones
- ELISPOT response (spot-forming units) of T cell clones (T cell clones [1]): similar
- screen-positive T cell clones positive for the 15-mer peptide on retest (T cell clones [1]; [3]): eight

Substance: LEDLLMGT (Human Papilloma Virus 16; CHAIN residues 79-86 of the E7 protein) [E7 79-86]
- ELISPOT response of 27G6 clone (T cell clones [1]): smaller response; also recorded: did not show any activity above the background

Substance: E6 91-115: pool of three overlapping 15-mers covering HPV16 E6 91-115 (YGTTLEQQYNKPLCDLLIRCINCQK; cysteine pairing not given here; also: pool of overlapping 15-mers)
- CD8 T cell response to HPV 16 E6 region (CD8 T cell line; Subject 18): X

Substance: E6 143-153: HPV16 E6 11-mer, residues 143-153 (CMSCCRSSRTR; Human Papilloma Virus 16; CHAIN residues 143-153 of the E6 protein)
- ELISPOT response of T cell clones (T cell clones [1]): None of the 9-mers and the 11-mers was positive

Substance: E6 61-85: pool of three overlapping 15-mers covering HPV16 E6 61-85 (YRDGNPYAVCDKCLKFYSKISEYRH; cysteine pairing not given here; also: pool of overlapping 15-mers)
- CD8 T cell response to HPV 16 E6 region (CD8 T cell line; Subject 18): x
- CD8 T cell response to HPV 16 E6 region (CD8 T cell line; Subject 23): x

Substance: PRKLPQLCTELQTTI (Human Papilloma Virus 16; CHAIN residues 16-30 of the E6 protein) [E6 16-30]
- T cell clones positive in screening ELISPOT (T cell clones [1]; subject 15): one
- retest of screen-positive T cell clones (ELISPOT) (T cell clones [1]; subject 15): negative; also recorded: false positives

Substance: QLCTELQTTIHDIIL (QLCTELETTIHDIIL; Human Papilloma Virus 16; CHAIN residues 21-35 of the E6 protein) [E6 21-35]
- T cell clones positive in screening ELISPOT (T cell clones [1]; subject 15): three
- retest of screen-positive T cell clones (ELISPOT) (T cell clones [1]; subject 15): negative; also recorded: false positives

Substance: E6 31-55: pool of three overlapping 15-mers covering HPV16 E6 31-55 (HDIILECVYCKQQLLRREVYDFAFR; cysteine pairing not given here; also: pool of overlapping 15-mers)
- T cell clones positive with E6-vac infected autologous LCL (T cell clones [2]; subject 20, MOI 5): six of eight and 6 of the 8
- CD8 T cell response to HPV 16 E6 region (CD8 T cell line; Subject 2): x
- CD8 T cell response to HPV 16 E6 region (CD8 T cell line; Subject 18): x
- CD8 T cell response to HPV 16 E6 region (CD8 T cell line; Subject 20): x
- CD8 T cell response to HPV 16 E6 region (CD8 T cell line; Subject 23): X

Substance: E6 144-154: HPV16 E6 11-mer, residues 144-154 (MSCCRSSRTRR; Human Papilloma Virus 16; CHAIN residues 144-154 of the E6 protein)
- ELISPOT response of T cell clones (T cell clones [1]): None of the 9-mers and the 11-mers was positive

Substance: EDLLMGTL (Human Papilloma Virus 16; CHAIN residues 80-87 of the E7 protein) [E7 80-87]
- ELISPOT response of 27G6 clone (T cell clones [1]): smaller response; also recorded: partial IFN-γ secretion

Substance: AFRDLCIVY (Human Papilloma Virus 16; CHAIN residues 53-61 of the E6 protein) [E6 53-61]
- ELISPOT response of E6-specific T cell clones (T cell clones [1]; subject 1 clones 2, 9 and 69): response

Substance: E6 136-158: pool of overlapping 15-mers covering HPV16 E6 136-158 (RGRWTGRCMSCCRSSRYRRETQK; cysteine pairing not given here; also: pool of overlapping 15-mers)
- CD8 T cell response to HPV 16 E6 region (CD8 T cell line; Subject 5): x

Substance: E6 30-38: HPV16 E6 9-mer peptide, residues 30-38 (IHDIILECV; Human Papilloma Virus 16; CHAIN residues 30-38 of the E6 protein)
- ELISPOT response (spot forming units) of T cell clones (T cell clones [1]; subject 7 dominant epitope, clones #12-7, #40-7, #59-7): positive
- ELISPOT response (spot forming units) of T cell clones (T cell clones [1]; [4]): positive; also recorded: similar; also recorded: large numbers of spot forming units

Substance: E6 32-38: HPV16 E6 7-mer, residues 32-38 (DIILECV; Human Papilloma Virus 16; CHAIN residues 32-38 of the E6 protein)
- ELISPOT response (spot forming units) of T cell clones (T cell clones [1]; [4]): Less number of spot forming units

Substance: E6 141-155: HPV16 E6 15-mer peptide, residues 141-155 (GRCMSCCRSSRTRRE; Human Papilloma Virus 16; CHAIN residues 141-155 of the E6 protein)
- recognition of E6-vac infected autologous LCL / natural processing (T cell clones [2]; subject 5 clones #1-5 and #17-5): not with E6-vac infected autologous LCL; also recorded: not the E6-vac infected ones
- screen-positive T cell clones positive for the 15-mer peptide on retest (T cell clones [1]; subject 5): Two
- ELISPOT response of T cell clones (T cell clones [1]): confirmed

Substance: TTIHDIILEC (Human Papilloma Virus 16; CHAIN residues 28-37 of the E6 protein) [E6 28-37]
- ELISPOT response (spot-forming units) of T cell clones (T cell clones [1]): similar

Substance: IHDIILEC (Human Papilloma Virus 16; CHAIN residues 30-37 of the E6 protein) [E6 30-37]
- ELISPOT response (spot forming units) of T cell clones (T cell clones [1]; [4]): Less number of spot forming units

Substance: DFAFRDLCIVY (Human Papilloma Virus 16; CHAIN residues 51-61 of the E6 protein) [E6 51-61]
- ELISPOT response (spot forming units) of T cell clones (T cell clones [1]; subject 7 subdominant epitope, clones #15-7, #41-7, #54-7, #86-7): more number of spot forming units

Substance: HDIILECVYCKQQLL (Human Papilloma Virus 16; CHAIN residues 31-45 of the E6 protein) [E6 31-45]
- screen-positive T cell clones positive for the 15-mer peptide on retest (T cell clones [1]; [3]): four

Substance: E6 31-37: HPV16 E6 7-mer, residues 31-37 (HDIILEC; Human Papilloma Virus 16; CHAIN residues 31-37 of the E6 protein)
- ELISPOT response (spot forming units) of T cell clones (T cell clones [1]; [4]): Less number of spot forming units

Substance: E6 142-152: HPV16 E6 11-mer, residues 142-152 (RCMSCCRSSRT; Human Papilloma Virus 16; CHAIN residues 142-152 of the E6 protein)
- ELISPOT response of T cell clones (T cell clones [1]): None of the 9-mers and the 11-mers was positive

Substance: E6 31-39: HPV16 E6 9-mer peptide, residues 31-39 (HDIILECVY; Human Papilloma Virus 16; CHAIN residues 31-39 of the E6 protein)
- ELISPOT response (spot forming units) of T cell clones (T cell clones [1]; [4]): positive; also recorded: similar; also recorded: large numbers of spot forming units
